Experimental data published in patent US11395857B2, “Radiolabeled melanocortin 1 receptor-specific alpha-melanocyte-stimulating hormone analogues for imaging or therapy” (PROVINCIAL HEALTH SERVICES AUTHORITY, priority 2018, dated 2022).

What was measured:
B16F10 cells = assay: In vitro competition binding assay on B16-F10 cells vs 125I-[Nle4,D-Phe7]-alpha-MSH; parameters: species or system Mus musculus; conditions: natGa-coupled peptides
Experimental: The B16-F10 melanoma cell line (Mus musculus) used in the tumor model was obtained commercially from ATTC (CRL-6475). Cells were cultured in Dulbecco's Modified Eagle's Medium (DMEM, StemCell Technologies) supplemented by 10% FBS, 100 U/mL penicillin and 100 μg/mL streptomycin at 37° C. in a humidified incubator containing 5% CO2. Cells grown to roughly 90% confluence were washed with sterile phosphate-buffered saline (lx PBS, pH 7.4), followed by trypsinization. For tumour implantation, C57BL/6J mice were anesthetized by inhalation with 2% isoflurane in 2.0 L/min of oxygen, 2×10^6 B16-F10 cells were inoculated subcutaneously on right dorsal flank. Mice were imaged or used in biodistribution studies once the tumour reached 6-8 mm in diameter.
In vitro competitive binding assays were performed using B16-F10 cells and the cell culture method described in Example 1. 500,000 cells/well were seeded onto a 24 well poly-D-lysine coated plate (Corning) overnight. Growth media was removed, and reaction buffer containing 4.8 mg/mL HEPES, […] penicillin/[…] and 2 mg/mL BSA was added, and allowed to incubate with cells at 37° C. for at least an hour. Peptide of interest and ^125I-[Nle^4, D-Phe^7]-alpha-MSH (Perkin Elmer) were added to each well. The binding of ^125I-[Nle^4, D-Phe^7]-alpha-MSH was competed by non-radioactive gallium coupled CCZ01103, CCZ01104, CCZ01105, CCZ01106 or CCZ01114 at increasing concentrations from 0.5 pmol/mL to […]. The reaction mixture was incubated at 25° C. with moderate shaking for 1 h. After the incubation, the reaction mixture was removed, and cells were washed with ice-cold PBS twice. 0.25% Trypsin solution was used to harvest the cells and radioactivity was measured using a Wallac WIZARD2 gamma counter (Perkin Elmer).

[1] = In vivo stability in mouse urine at 1 h p.i. (radio-HPLC); parameters: species or system C57BL/6J mice
Experimental: All animal experiments were conducted in according to the guidelines established by Canadian Council on Animal Care and approved by Animal Ethics Committee of the University of British Columbia. Mice were housed under pathogen-free conditions and kept on twelve hours light and twelve hours dark cycle in the Animal Research Centre, BC Cancer Research Centre, Vancouver, Canada. C57BL/6J mice were anesthetized by inhalation with 2% isoflurane in 2.0 L/min of oxygen, and approximately 4-6 MBq of [^68Ga]Ga-CCZ01099 or [^68Ga]Ga-CCZ01048 was injected intravenously. The mice were allowed to recover and roam freely in their cages. At 1 h post-injection (p.i.), the mice were euthanized by CO2 inhalation and their urine was collected and analyzed on HPLC for metabolite using the conditions described above. In vivo urine stability of [^68Ga]Ga-CCZ01099 and [^68Ga]Ga-CCZ01048 were 34.0±10.4% and ≥98.0% (n≥3), respectively.
The in vivo stability tests in mouse urine were performed as described in Example 1. […] With systematic reduction in the number of N-methylations for the αMSH analogues, a decrease in in vivo stability was observed.

SK-MEL-1 human melanoma = assay: SPECT/CT imaging of mice bearing SK-MEL-1 human melanoma; type: in vivo, NRG mice; conditions: 24 h p.i.
Experimental: SPECT/CT imaging experiments were conducted using the same conditions as described in Example 3. […] (FIG. 6).

B16-F10 tumours = conditions: Zhang et al., 2017 Theranostics; cited from earlier work

In vivo urine stability, intact tracer [1] [%] | Structure (SMILES) | Binding affinity (comparison among the five analogues) (B16F10 cells) | other results
82.5±1.8 | CCCC[C@H](NC(=O)CN1CCC(NC(=O)CN2CCN(CC(=O)O)CCN(CC(=O)O)CCN(CC(=O)O)CC2)CC1)C(=O)N[C@H]1CC(=O)NCCCC[C@@H](C(N)=O)N(C)C(=O)[C@H](Cc2c[nH]c3ccccc23)NC(=O)[C@H](CCCNC(=N)N)N(C)C(=O)[C@@H](Cc2ccccc2)NC(=O)[C@H](Cc2c[nH]cn2)NC1=O [CCZ01106, DOTA-Pip-Nle-cyclo[Asp-His-D-Phe-(N-Me-Arg)-Trp-(N-Me-Lys)]—NH2] | highest binding affinity | Ki (B16F10 cells; n ≥ 3, read-out: Inhibition constants (Ki) on B16F10 cells): 1.5 ± 0.1 nM
 | CCCC[C@H](NC(=O)CN1CCC(NC(=O)CN2CCN(CC(=O)O)CCN(CC(=O)O)CCN(CC(=O)O)CC2)CC1)C(=O)N[C@H]1CC(=O)NCCCC[C@@H](C(N)=O)NC(=O)[C@H](Cc2c[nH]c3ccccc23)NC(=O)[C@H](CCCNC(=N)N)N(C)C(=O)[C@@H](Cc2ccccc2)NC(=O)[C@H](Cc2c[nH]cn2)NC1=O [CCZ01114, DOTA-Pip-Nle-cyclo[Asp-His-D-Phe-(N-Me-Arg)-Trp-Lys]-NH2] | highest binding affinity | 
 | CCCC[C@H](NC(=O)CN1CCC(NC(=O)[C@H](CCCCNC(=O)CN2CCN(CC(=O)O)CCN(CC(=O)O)CCN(CC(=O)O)CC2)NC(=O)CNC(=O)CCCc2ccc(C)cc2)CC1)C(=O)N[C@H]1CC(=O)NCCCC[C@@H](C(N)=O)N(C)C(=O)[C@H](Cc2c[nH]c3ccccc23)NC(=O)[C@H](CCCNC(=N)N)N(C)C(=O)[C@@H](Cc2ccccc2)NC(=O)[C@H](Cc2cnc[nH]2)NC1=O [CCZ01158] |  | Blood uptake in SPECT images (SK-MEL-1 human melanoma): Lower blood uptake was observed; Tumour uptake / retention in SPECT images (SK-MEL-1 human melanoma): showed improved the tumour retention
≥ 98.0 | CCCC[C@H](NC(=O)CN1CCC(NC(=O)CN2CCN(CC(=O)O)CCN(CC(=O)O)CCN(CC(=O)O)CC2)CC1)C(=O)N[C@H]1CC(=O)NCCCC[C@@H](C(N)=O)NC(=O)[C@H](Cc2c[nH]c3ccccc23)NC(=O)[C@H](CCCNC(=N)N)NC(=O)[C@@H](Cc2ccccc2)NC(=O)[C@H](Cc2c[nH]cn2)NC1=O [[^68Ga]Ga-CCZ01048, metal not drawn, reference compound] |  | Thyroid uptake on PET images (B16-F10 tumours): thyroid uptake was clearly observed
